Test results taken from patent US10280169B2, “Biaryl bruton's tyrosine kinase inhibitors” (BIOGEN MA INC., priority 2013, dated 2019).
Counter-ions that a name gives are not always drawn.

These compounds were tested against T1, BTK (Homo sapiens, UniProt Q06187) (assay: In vitro BTK kinase assay: BTK-POLYGAT-LS assay). Details: 10 uM ATP, read-out: IC50 (10 uMATP).
T1 construct: purchased Upstate 14-552
Type: biochemical

T1 sequence (Q06187 whole entry): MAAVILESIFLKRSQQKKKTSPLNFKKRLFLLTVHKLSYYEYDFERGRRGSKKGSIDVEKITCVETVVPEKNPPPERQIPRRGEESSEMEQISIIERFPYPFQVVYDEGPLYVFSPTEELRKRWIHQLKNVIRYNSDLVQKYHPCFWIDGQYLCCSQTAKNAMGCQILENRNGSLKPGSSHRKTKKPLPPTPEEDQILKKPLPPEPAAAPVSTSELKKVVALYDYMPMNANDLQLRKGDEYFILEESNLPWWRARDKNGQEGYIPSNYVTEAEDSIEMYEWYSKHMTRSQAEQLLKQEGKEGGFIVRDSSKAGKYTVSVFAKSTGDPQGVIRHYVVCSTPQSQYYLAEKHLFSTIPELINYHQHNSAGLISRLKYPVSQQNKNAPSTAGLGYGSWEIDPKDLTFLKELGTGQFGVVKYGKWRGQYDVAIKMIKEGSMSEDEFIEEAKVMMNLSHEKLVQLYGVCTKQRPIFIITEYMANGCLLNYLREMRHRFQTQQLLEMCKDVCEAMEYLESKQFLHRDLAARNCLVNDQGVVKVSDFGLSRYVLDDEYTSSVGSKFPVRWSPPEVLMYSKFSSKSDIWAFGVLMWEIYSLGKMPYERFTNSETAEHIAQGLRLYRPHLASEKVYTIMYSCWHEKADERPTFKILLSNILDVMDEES

Row | SMILES | IC50
1 | Cn1cc(-c2cc3c(-c4ccc5c(c4)CCCC5NC(=O)N4CC(OC(C)(C)C)C4)ncnc3[nH]2)cn1 (stereo not shown) [Example I-159, 3-(tert-butoxy)-N-(6-(6-(1-methyl-1H-pyrazol-4-yl)-7H-pyrrolo[2,3-d]pyrimidin-4-yl)-1,2,3,4-tetrahydronaphthalen-1-yl)azetidine-1-carboxamide] | < 10 nM
2 | Cc1cc(-c2ncnc3[nH]ccc23)cnc1CNC(=O)c1cc2c(s1)CCCC2 [Example I-153, N-((3-methyl-5-(7H-pyrrolo[2,3-d]pyrimidin-4-yl)pyridin-2-yl)methyl)-4,5,6,7-tetrahydrobenzo[b]thiophene-2-carboxamide] | 10 to 99 nM
3 | CC(C)(C)c1ccc(C(=O)NC2CCc3cc(-c4ncnc5[nH]ccc45)ccc32)cc1 (stereo not shown) [Example I-154, N-(5-(7H-pyrrolo[2,3-d]pyrimidin-4-yl)-2,3-dihydro-1H-inden-1-yl)-4-(tert-butyl)benzamide] | > 10000 nM
4 | O=c1c2c(F)cc(C3CC3)cc2ccn1C1CCCc2cc(-c3ncnc4[nH]ncc34)ccc21 (stereo not shown) [Example I-138, 2-(6-(1H-pyrazolo[3,4-d]pyrimidin-4-yl)-1,2,3,4-tetrahydronaphthalen-1-yl)-6-cyclopropyl-8-fluoroisoquinolin-1(2H)-one] | 10 to 99 nM
5 | O=C(N[C@@H]1CCCc2cc(-c3ncnc4[nH]ncc34)ccc21)[C@H]1CC[C@H](C(F)(F)F)CC1 [Example I-105, trans-N—((R)-6-(1H-pyrazolo[3,4-d]pyrimidin-4-yl)-1,2,3,4-tetrahydronaphthalen-1-yl)-4-(trifluoromethyl)cyclohexanecarboxamide] | 100 to 999 nM
6 | O=C(NCc1ccc(-c2ncnc3[nH]ccc23)cc1)c1cc2ccccc2s1 [Example I-61, N-(4-(7H-pyrrolo[2,3-d]pyrimidin-4-yl)benzyl)benzo[b]thiophene-2-carboxamide] | 10 to 99 nM
7 | O=C(N[C@@H]1CCCc2cc(-c3ncnc4[nH]ncc34)ccc21)c1cc2c(s1)CCCC2 [Example I-86, (R)—N-(6-(1H-Pyrazolo[3,4-d]pyrimidin-4-yl)-1,2,3,4-tetrahydronaphthalen-1-yl)-4,5,6,7-tetrahydrobenzo[b]thiophene-2-carboxamide] | 10 to 99 nM
8 | Cc1cc(-c2ncnc3nc(N4CCOC(C(=O)O)C4)[nH]c23)ccc1CNC(=O)c1cnc(C(C)(C)C)s1 (stereo not shown) [Example I-124, 4-(6-(4-((2-(tert-butyl)thiazole-5-carboxamido)methyl)-3-methylphenyl)-7H-purin-8-yl)morpholine-2-carboxylic acid] | 10 to 99 nM
9 | O=C(NCc1ncc(-c2ncnc3[nH]ncc23)cc1F)c1cc2c(s1)CCCC2 [Example I-109, N-((3-fluoro-5-(1H-pyrazolo[3,4-d]pyrimidin-4-yl)pyridin-2-yl)methyl)-4,5,6,7-tetrahydrobenzo[b]thiophene-2-carboxamide] | 100 to 999 nM
10 | Cc1cc(-c2ncnc3c2cc(-c2cnn(C)c2)n3C)ccc1CNC(=O)c1cnc(C(C)(C)C)s1 [Example I-27, 2-(tert-butyl)-N-(2-methyl-4-(7-methyl-6-(1-methyl-1H-pyrazol-4-yl)-7H-pyrrolo[2,3-d]pyrimidin-4-yl)benzyl)thiazole-5-carboxamide] | 10 to 99 nM
11 | Cn1cc(-c2cc3c(-c4ccc5c(c4)CCCCC5NC(=O)N4CC(OC(C)(C)C)C4)ncnc3[nH]2)cn1 (stereo not shown) [Example I-164, 3-(tert-butoxy)-N-(2-(6-(1-methyl-1H-pyrazol-4-yl)-7H-pyrrolo[2,3-d]pyrimidin-4-yl)-6,7,8,9-tetrahydro-5H-benzo[7]annulen-5-yl)azetidine-1-carboxamide] | < 10 nM
12 | O=C(NCc1ccc(-c2ncnc3[nH]ncc23)cc1C(F)(F)F)c1nc2c(s1)CCCC2 [Example I-108, N-(4-(1H-pyrazolo[3,4-d]pyrimidin-4-yl)-2-(trifluoromethyl)benzyl)-4,5,6,7-tetrahydrobenzo[d]thiazole-2-carboxamide] | 10 to 99 nM
13 | O=C(NC1CCCc2cc(-c3ncnc4[nH]ncc34)ccc21)c1cc2c(s1)CCCC2 (stereo not shown) [Example I-107, N-(6-(1H-pyrazolo[3,4-d]pyrimidin-4-yl)-1,2,3,4-tetrahydronaphthalen-1-yl)-4,5,6,7-tetrahydrobenzo[b]thiophene-2-carboxamide] | < 10 nM
14 | CC(C)(C)c1ccc(C(=O)NCc2ncc(-c3ncnc4[nH]ccc34)cc2Cl)nc1 [Example I-12] | 100 to 999 nM
15 | CC(C)OC1CN(C(=O)NC2CCCc3cc(-c4ncnc5[nH]c(-c6cnn(C)c6)cc45)ccc32)C1 (stereo not shown) [Example I-158, 3-isopropoxy-N-(6-(6-(1-methyl-1H-pyrazol-4-yl)-7H-pyrrolo[2,3-d]pyrimidin-4-yl)-1,2,3,4-tetrahydronaphthalen-1-yl)azetidine-1-carboxamide] | < 10 nM
16 | Cc1cc(-c2ncnc3[nH]ccc23)ccc1C(C)NC(=O)c1nc2c(s1)CCCC2 (stereo not shown) [Example I-77, N-(1-(2-methyl-4-(7H-pyrrolo[2,3-d]pyrimidin-4-yl)phenyl)ethyl)-4,5,6,7-tetrahydrobenzo[d]thiazole-2-carboxamide] | < 10 nM
17 | Cc1cc(-c2ncnc3[nH]c(-c4cnn5c4CNCC5)cc23)ccc1CNC(=O)c1cnc(C(C)(C)C)s1 [Example I-76, 2-(tert-butyl)-N-(2-methyl-4-(6-(4,5,6,7-tetrahydropyrazolo[1,5-a]pyrazin-3-yl)-7H-pyrrolo[2,3-d]pyrimidin-4-yl)benzyl)thiazole-5-carboxamide hydrochloride] | < 10 nM

Row | SMILES | IC50
18 | Cc1cc(-c2ncnc3[nH]ncc23)ccc1C(C)NC(=O)c1cnc(C(C)(C)C)s1 (stereo not shown) [Example I-128, 2-(tert-butyl)-N-(1-(2-methyl-4-(1H-pyrazolo[3,4-d]pyrimidin-4-yl)phenyl)ethyl)thiazole-5-carboxamide] | 10 to 99 nM
19 | Cc1cc(-c2ncnc3[nH]ncc23)ccc1C(C)NC(=O)c1nc2c(s1)CCCC2 (stereo not shown) [Example I-127, N-(1-(2-methyl-4-(1H-pyrazolo[3,4-d]pyrimidin-4-yl)phenyl)ethyl)-4,5,6,7-tetrahydrobenzo[d]thiazole-2-carboxamide] | 10 to 99 nM
20 | Cc1cc(-c2ccnc3[nH]ncc23)cnc1CNC(=O)c1cc2c(s1)CCCC2 [Example I-139, N-((3-methyl-5-(1H-pyrazolo[3,4-b]pyridin-4-yl)pyridin-2-yl)methyl)-4,5,6,7-tetrahydrobenzo[b]thiophene-2-carboxamide] | 10 to 99 nM
21 | CC(C)c1csc(C(=O)NC2CCCc3cc(-c4ncnc5[nH]ncc45)ccc32)n1 (stereo not shown) [Example I-96, N-(6-(1H-pyrazolo[3,4-d]pyrimidin-4-yl)-1,2,3,4-tetrahydronaphthalen-1-yl)-4-isopropylthiazole-2-carboxamide] | 10 to 99 nM
22 | Cc1cc(-c2ncnc3nc(N4CCCC4C(=O)O)[nH]c23)ccc1CNC(=O)c1cnc(C(C)(C)C)s1 (stereo not shown) [Example I-55, 1-(6-(4-((2-(tert-butyl)thiazole-5-carboxamido)methyl)-3-methylphenyl)-7H-purin-8-yl)pyrrolidine-2-carboxylic acid] | 10 to 99 nM
23 | O=C(NCc1ccc(-c2ncnc3[nH]ccc23)cc1)c1cn2c(n1)CCC2 [Example I-59, N-(4-(7H-pyrrolo[2,3-d]pyrimidin-4-yl)benzyl)-6,7-dihydro-5H-pyrrolo[1,2-a]imidazole-2-carboxamide] | 1000 to 10000 nM
24 | Cc1cc(-c2ccnc3[nH]ccc23)cnc1CNC(=O)c1cc2c(s1)CCCC2 [Example I-126, N-((3-methyl-5-(1H-pyrrolo[2,3-b]pyridin-4-yl)pyridin-2-yl)methyl)-4,5,6,7-tetrahydrobenzo[b]thiophene-2-carboxamide] | 10 to 99 nM
25 | CC(C)(C)c1ccc(C(=O)NCc2ccc(-c3ncnc4[nH]ccc34)cn2)nc1 [Example I-70] | 100 to 999 nM
26 | NC(=O)C(NC(=O)c1cc2c(s1)CCCC2)c1ccc(-c2ncnc3[nH]ncc23)cc1 (stereo not shown) [Example I-151, N-(1-(4-(1H-pyrazolo[3,4-d]pyrimidin-4-yl)phenyl)-2-amino-2-oxoethyl)-4,5,6,7-tetrahydrobenzo[b]thiophene-2-carboxamide] | 1000 to 10000 nM
27 | CC(C)(C)c1ccnc(C(=O)NC2CCCc3cc(-c4ncnc5[nH]ncc45)ccc32)c1 (stereo not shown) [Example I-150, N-(6-(1H-pyrazolo[3,4-d]pyrimidin-4-yl)-1,2,3,4-tetrahydronaphthalen-1-yl)-4-(tert-butyl)picolinamide] | 1000 to 10000 nM
28 | Cc1cc(-c2ncnc3cc[nH]c23)cnc1CNC(=O)c1cc2c(s1)CCCC2 [Example I-140, N-((3-methyl-5-(5H-pyrrolo[3,2-d]pyrimidin-4-yl)pyridin-2-yl)methyl)-4,5,6,7-tetrahydrobenzo[b]thiophene-2-carboxamide] | 100 to 999 nM
29 | CC(C)(C)c1ccc(C(=O)NCc2ccc(-c3ncnc4[nH]ccc34)cc2Cl)nc1 [Example I-5, 5-(tert-butyl)-N-(2-chloro-4-(7H-pyrrolo[2,3-d]pyrimidin-4-yl)benzyl)picolinamide] | 10 to 99 nM
30 | CC(C)(C)c1ccc(C(=O)NCc2ccc(-c3ncnc4[nH]ccc34)cc2)nc1 [Example I-68, N-(4-(7H-pyrrolo[2,3-d]pyrimidin-4-yl)benzyl)-5-(tert-butyl)picolinamide] | 100 to 999 nM
31 | CC(C)(C)c1ccc(C(=O)NCc2ccc(-c3ncnc4[nH]ccc34)cc2C#N)nc1 [Example I-6, 5-(tert-butyl)-N-(2-cyano-4-(7H-pyrrolo[2,3-d]pyrimidin-4-yl)benzyl)picolinamide] | 10 to 99 nM
32 | CC(C)(C)c1csc(C(=O)N[C@@H]2CCCc3cc(-c4ncnc5[nH]ncc45)ccc32)n1 [Example I-99, (R)—N-(6-(1H-pyrazolo[3,4-d]pyrimidin-4-yl)-1,2,3,4-tetrahydronaphthalen-1-yl)-4-(tert-butyl)thiazole-2-carboxamide] | < 10 nM
33 | O=C(NC1CCCc2cc(-c3ncnc4[nH]ncc34)ccc21)c1ccc(C(F)(F)F)c(F)c1 (stereo not shown) [Example I-91, N-(6-(1H-pyrazolo[3,4-d]pyrimidin-4-yl)-1,2,3,4-tetrahydronaphthalen-1-yl)-3-fluoro-4-(trifluoromethyl)benzamide] | 10 to 99 nM
34 | O=C(NCc1ccc(-c2ncnc3[nH]ccc23)cc1)C1Cc2ccccc2C1 [Example I-60, N-(4-(7H-pyrrolo[2,3-d]pyrimidin-4-yl)benzyl)-2,3-dihydro-1H-indene-2-carboxamide] | > 10000 nM
